Columns and labels:
[1] = system: present invention protein (A23); experiment: Metabolism of compounds by the present invention protein (A23), reaction solution, HPLC; format: in vitro ADME, Streptomyces roseorubens IFO 13682T; conditions: 12.5 ppm of compound, components A, B, C, 20 μl supernatant fraction of Example 63(2), 30° C. for 10 minutes
[2] = system: present invention protein (A11); experiment: Metabolism of compounds by the present invention protein (A11), reaction solution, HPLC; format: in vitro ADME, Streptomyces nogalator IFO13445; conditions: 5 ppm of compound, components A, B, C, 20 μl supernatant fraction of Example 32(2), 30° C. for 10 minutes
Experimental: There was prepared 100 μl of a reaction solution of 50 mM potassium phosphate buffer (pH7.0) containing 5 ppm of compound (XII), 3 mM of […] (hereinafter, referred to as “component A”) (Oriental Yeast Company), 1 mg/ml of a ferredoxin derived from spinach (hereinafter referred to as “component B”) (Sigma Company), 0.15 U/ml of ferredoxin reductase (hereinafter, referred to as “component C”) (Sigma Company) and 20 μl of the supernatant fraction recovered in Example 4(2). The reaction solution was maintained at 30° C. for 10 minutes. Further, there was prepared and maintained similarly 100 μl of a reaction solution of a 50 mM potassium phosphate buffer (pH 7.0) having no addition of at least one component utilized in the composition of the above reaction solution, selected from component A, component B, component C and the supernatant fraction prepared in Example 4(2). Ten microliters (10 μl) of 2N HCl and 500 μl of ethyl acetate were added and mixed into each of the reaction solutions after the maintenance. The resulting reaction solutions were centrifuged at 8,000×g to recover 490 μl of the ethyl acetate layer. After drying the ethyl acetate layers under reduced pressure, the residue was dissolved in 100 μl of 50 mM of potassium phosphate buffer (pH7.0). Forty microliters (40 μl) of the fraction solutions (hereinafter, the fraction solution derived from the reaction solution containing component A, component B, component C and 20 μl of supernatant fraction recovered in Example 4(2) is referred to as “(XII) metabolism solution (A1);” further, the fraction solution derived from the reaction solution containing no component A, no component B, no component C and no supernatant fraction recovered in Example 4(2) is referred to as “(XII) control solution (A1)”) were analyzed on a HPLC. Compared to the concentration of compound (XII) detected from (XII) control solution (A1), the concentration of compound (XII) detected from (XII) metabolism solution (A1) was lower. Further a peak, which was not detected from the (XII) control solution (A1), was detected from the (XII) metabolism solution (A1). Mass spectrometry was conducted for the compound contained in such a peak. […]
Other than utilizing 20 μl of the supernatant fraction recovered in Example 32(2) instead of 20 μl of the supernatant fraction recovered in Example 4(2), the reaction solutions were prepared and maintained in accordance with the method described in Example 41(2). […] Compared to the concentration of compound (XII) detected from (XII) control solution (A11), the concentration of compound (XII) detected from (XII) metabolism solution (A11) was lower. Further a peak, which was not detected from the (XII) control solution (A11), was detected from the (XII) metabolism solution (A11). […]

[3] = system: present invention protein (A1); experiment: Metabolism of compounds by the present invention protein (A1), reaction solution, HPLC; format: in vitro ADME, Streptomyces phaeochromogenes IFO12898; conditions: 5 ppm of compound, components A, B, C, 20 μl supernatant fraction of Example 4(2), 30° C. for 10 minutes
Experimental: There was prepared 100 μl of a reaction solution of 50 mM potassium phosphate buffer (pH7.0) containing 5 ppm of compound (XII), 3 mM of […] (hereinafter, referred to as “component A”) (Oriental Yeast Company), 1 mg/ml of a ferredoxin derived from spinach (hereinafter referred to as “component B”) (Sigma Company), 0.15 U/ml of ferredoxin reductase (hereinafter, referred to as “component C”) (Sigma Company) and 20 μl of the supernatant fraction recovered in Example 4(2). The reaction solution was maintained at 30° C. for 10 minutes. Further, there was prepared and maintained similarly 100 μl of a reaction solution of a 50 mM potassium phosphate buffer (pH 7.0) having no addition of at least one component utilized in the composition of the above reaction solution, selected from component A, component B, component C and the supernatant fraction prepared in Example 4(2). Ten microliters (10 μl) of 2N HCl and 500 μl of ethyl acetate were added and mixed into each of the reaction solutions after the maintenance. The resulting reaction solutions were centrifuged at 8,000×g to recover 490 μl of the ethyl acetate layer. After drying the ethyl acetate layers under reduced pressure, the residue was dissolved in 100 μl of 50 mM of potassium phosphate buffer (pH7.0). Forty microliters (40 μl) of the fraction solutions (hereinafter, the fraction solution derived from the reaction solution containing component A, component B, component C and 20 μl of supernatant fraction recovered in Example 4(2) is referred to as “(XII) metabolism solution (A1);” further, the fraction solution derived from the reaction solution containing no component A, no component B, no component C and no supernatant fraction recovered in Example 4(2) is referred to as “(XII) control solution (A1)”) were analyzed on a HPLC. Compared to the concentration of compound (XII) detected from (XII) control solution (A1), the concentration of compound (XII) detected from (XII) metabolism solution (A1) was lower. Further a peak, which was not detected from the (XII) control solution (A1), was detected from the (XII) metabolism solution (A1). Mass spectrometry was conducted for the compound contained in such a peak. The mass of the compound contained in such a peak was 14 smaller than the mass of compound (XII).
Other than utilizing 5 ppm of compound (XIII) instead of 5 ppm of compound (XII), reaction solutions were prepared and maintained similarly to the method described in Example 41(2). […] Compared to the concentration of compound (XIII) detected from (XIII) control solution (A1), the concentration of compound (XIII) detected from (XIII) metabolism solution (A1) was lower. Further a peak, which was not detected from the (XIII) control solution (A1), was detected from the (XIII) metabolism solution (A1). […]

[4] = system: present invention protein (A21); experiment: Metabolism of compounds by the present invention protein (A21), reaction solution, HPLC; format: in vitro ADME, Streptomyces misawanensis IFO 13855T; conditions: 12.5 ppm of compound, components A, B, C, 20 μl supernatant fraction of Example 59(2), 30° C. for 10 minutes
[5] = system: present invention protein (A15); experiment: Metabolism of compounds by the present invention protein (A15), reaction solution, HPLC; format: in vitro ADME, Streptomyces olivochromogenes IFO 12444; conditions: 5 ppm of compound, components A, B, C, 20 μl supernatant fraction of Example 40(2), 30° C. for 10 minutes
[6] = system: present invention protein (A20); experiment: Metabolism of compounds by the present invention protein (A20), reaction solution, HPLC; format: in vitro ADME, Streptomyces lanatus IFO 12787T; conditions: 12.5 ppm of compound, components A, B, C, 20 μl supernatant fraction of Example 57(2), 30° C. for 10 minutes
[7] = system: present invention protein (A3); experiment: Metabolism of compounds by the present invention protein (A3), reaction solution, HPLC; format: in vitro ADME, Streptomyces testaceus ATCC21469; conditions: 5 ppm of compound, components A, B, C, 20 μl supernatant fraction of Example 12(2), 30° C. for 10 minutes

Cn1c(C(F)(F)F)cc(=O)n(-c2cc(Oc3cccnc3OCC(=O)O)c(Cl)cc2F)c1=O [compound (XII)]
lower: concentration of the compound detected from metabolism solution (A23) compared to control solution (A23) [1] | concentration of the compound detected from metabolism solution (A11) compared to control solution (A11) [2] | concentration of the compound detected from metabolism solution (A1) compared to control solution (A1) [3] | concentration of the compound detected from metabolism solution (A21) compared to control solution (A21) [4] | concentration of the compound detected from metabolism solution (A15) compared to control solution (A15) [5] | concentration of the compound detected from metabolism solution (A20) compared to control solution (A20) [6] | concentration of the compound detected from metabolism solution (A3) compared to control solution (A3) [7]

Cn1c(C(F)(F)F)cc(=O)n(-c2cc(Oc3ccccc3OCC(=O)O)c(Cl)cc2F)c1=O [compound (XIII)]
lower: concentration of the compound detected from metabolism solution (A23) compared to control solution (A23) [1] | concentration of the compound detected from metabolism solution (A11) compared to control solution (A11) [2] | concentration of the compound detected from metabolism solution (A1) compared to control solution (A1) [3] | concentration of the compound detected from metabolism solution (A21) compared to control solution (A21) [4] | concentration of the compound detected from metabolism solution (A15) compared to control solution (A15) [5] | concentration of the compound detected from metabolism solution (A20) compared to control solution (A20) [6] | concentration of the compound detected from metabolism solution (A3) compared to control solution (A3) [7]

— US8293979B2, “Weed controller metabolism proteins, genes, thereof and use of the same” (Sumitomo Chemical Company, Limited, priority 2001, dated 2012)
